Experimental findings from US20230279016A1, “Tetrahydropyrazolopyrimidines and Related Analogs for Inhibiting YAP/TAZ-TEAD” (THE KATHOLIEKE UNIVERSITEIT LEUVEN, priority 2021, published 2023) are described below.

Structures are written as SMILES.

The test system of the first test is YAP/TAZ-TEAD transcription. Nature of the test: Reporter gene assay for measuring the inhibition of YAP/TAZ-TEAD transcription (TEAD-responsive element luciferase reporter in Hek293T cells). Type of test: cell-based. To be noted: Hek293T cells transiently transfected with TEAD-responsive element luciferase reporter, 24 hours incubation. As to the method:
Hek293T cells are cultured in DMEM supplemented with 10% fetal bovine serum, Sodium pyruvate, Sodium bicarbonate, L-glutamine. The cells are harvested and transiently transfected with TEAD-responsive element luciferase reporter. Transfected cells are plated in 384-wells plate containing pre-diluted compounds. After 24 hours incubation at 37° C./5%CO2, assay plates were cooled down to RT and levelled to an equal volume per well, prior to the addition of 25 uL luciferase substrate SteadyLite (Perkin Elmer)/well. The plate was shaken for 10 min at 600 rpm, centrifuged for 1min at 500 rpm and measured with an Envision reader (PerkinElmer). The amount of relative light units produced by the TEAD reporter is used to calculated percent of inhibition.
The percent of reporter inhibition was calculated in the presence of a positive control inhibitor (100% inhibition) versus a condition with the presence of the vehicle basal activity of the reporter (0% inhibition). The ability of a test compound to inhibit this activity was determined as:
Percentage inhibition=[1-((RLU determined in the presence of vehicle—RLU determined for sample with test compound present) divided by (RLU determined in the presence of vehicle — RLU determined for sample with positive control inhibitor))] * 100
The activities of the example compounds tested are depicted in the table below. The activity ranges A, B and C refer to EC50 values in the reporter gene assay as described as follows: “A”: EC50 <1 μM; “B” : 1 μM≤EC50≤20 μM and “C” : EC50>20 μM, NT=not tested.
For orientation: In a reporter assay the amount or activity of a reporter protein is the signal.
Consider `C=CC(=O)NCC1CN(c2ccc(C(F)(F)F)c(F)c2)c2ccnn2C1` (single isomer, unassigned) [Cpd. No. 015-En2, (R)- or (S)-N-((4-(3-fluoro-4-(trifluoromethyl)phenyl)-4,5,6,7-tetrahydropyrazolo[1,5-a]pyrimidin-6-yl)methyl)acrylamide], for which the EC50 was below 1000 nM.
On the same count and under the same terms, in the case of `C=CC(=O)N1CCC2(C1)CN(c1ccc(C(F)(F)F)cc1)c1ccnn1C2` (single isomer, unassigned) [Cpd. No. 088-En2, (R)- or (S)-1-(4-(4-(trifluoromethyl)phenyl)-4,5-dihydro-7H-spiro[pyrazolo[1,5-a]pyrimidine-6,3′-pyrrolidin]-1′-yl)prop-2-en-1-one] it was below 1000 nM.
The molecule `C=CC(=O)NCC1CN(c2ccc(Cl)cc2)c2ccnn2C1` (single isomer, unassigned) [Cpd. No. 005-En1, (R)- or (S)-N-((4-(4-chlorophenyl)-4,5,6,7-tetrahydropyrazolo[1,5-a]pyrimidin-6-yl)methyl)acrylamide] had an EC50 below 1000 nM.
Still for that read-out and setting: in the case of `C=CC(=O)NCC1CN(c2ccc(-c3ccccc3)cc2)c2ccnn2C1` (centres unmarked) [Cpd. No. 017, N-((4-([1,1′-biphenyl]-4-yl)-4,5,6,7-tetrahydropyrazolo[1,5-a]pyrimidin-6-yl)methyl)acrylamide] it was 1000 to 20000 nM.
On to `C=CC(=O)NCC1CN(c2ccc(C(F)(F)F)cc2)c2cc(C3CC3)nn2C1` (single isomer, unassigned) [Cpd. No. 031-En1, (R)- or (S)-N-((2-cyclopropyl-4-(4-(trifluoromethyl)phenyl)-4,5,6,7-tetrahydropyrazolo[1,5-a]pyrimidin-6-yl)methyl)acrylamide], for which the EC50 was below 1000 nM.
On the same count and under the same terms, the figure for `C=CC(=O)NCC1CN(c2ccc(C(F)F)nc2)c2ccnn2C1` (single isomer, unassigned) [Cpd. No. 010-En1, (R)- or (S)-N-((4-(6-(difluoromethyl)pyridin-3-yl)-4,5,6,7-tetrahydropyrazolo[1,5-a]pyrimidin-6-yl)methyl)acrylamide] is above 20000 nM.
Same read-out and setting: in the case of `C=CC(=O)NCC1CN(c2ccc(C(F)(F)F)cc2)c2cc(C3CC3)nn2C1` (single isomer, unassigned) [Cpd. No. 031-En2, (R)- or (S)-N-((2-cyclopropyl-4-(4-(trifluoromethyl)phenyl)-4,5,6,7-tetrahydropyrazolo[1,5-a]pyrimidin-6-yl)methyl)acrylamide] it was below 1000 nM; in that of `CCC(=O)NCC1Cc2c(cnn2Cc2cccc(C(N)=O)c2)N(c2ccc(C(F)(F)F)cc2)C1` (centres unmarked) [Cpd. No. 082, 3-((6-(propionamide-methyl)-4-(4-(trifluoromethyl)phenyl)-4,5,6,7-tetrahydro-1H-pyrazolo[4,3-b]pyridin-1-yl)methyl)benzamide], below 1000 nM.
Same read-out and setting: the figure for `C=CC(=O)NCC1CN(c2ccc(C(F)F)nc2)c2ccnn2C1` (single isomer, unassigned) [Cpd. No. 010-En2, (R)- or (S)-N-((4-(6-(difluoromethyl)pyridin-3-yl)-4,5,6,7-tetrahydropyrazolo[1,5-a]pyrimidin-6-yl)methyl)acrylamide] is below 1000 nM; for `C=CC(=O)N1CCC2(C1)CN(c1ccc(C(F)(F)F)cc1)c1ccnn1C2` (single isomer, unassigned) [Cpd. No. 088-En1, (R)- or (S)-1-(4-(4-(trifluoromethyl)phenyl)-4,5-dihydro-7H-spiro[pyrazolo[1,5-a]pyrimidine-6,3′-pyrrolidin]-1′-yl)prop-2-en-1-one] it is below 1000 nM; for `C=CC(=O)NCC1CN(c2ccc(C(F)F)cc2)c2ccnn2C1` (single isomer, unassigned) [Cpd. No. 009-En1, (R)- or (S)-N-((4-(4-(difluoromethyl)phenyl)-4,5,6,7-tetrahydropyrazolo[1,5-a]pyrimidin-6-yl)methyl)acrylamide] it is 1000 to 20000 nM.

The test is the same for the next values; noted with them: Homo sapiens, HEK-293T, 24 h, Hek293T cells transiently transfected with TEAD-responsive element luciferase reporter, 24 hours incubation.
In turn, `Cn1ncc2c1CC(CNS(C)(=O)=O)CN2c1ccc(OC(F)(F)F)cc1` (centres unmarked) [Cpd. No. 078, N-((1-methyl-4-(4-(trifluoromethoxy)phenyl)-4,5,6,7-tetrahydro-1H-pyrazolo[4,3-b]pyridin-6-yl)methyl)methanesulfonamide] gave a concentration for a half-maximal effect (EC50) above 20000 nM.
On to `Cn1cc2c(n1)CC(CNS(C)(=O)=O)CN2c1ccc(OC(F)(F)F)cc1` (centres unmarked) [Cpd. No. 079, N-((2-methyl-4-(4-(trifluoromethoxy)phenyl)-4,5,6,7-tetrahydro-2H-pyrazolo[4,3-b]pyridin-6-yl)methyl)methanesulfonamide], for which the EC50 fell in the range of 1000 to 20000 nM.
On the same count and under the same terms, the figure for `CCC(=O)NC1CN(c2ccc(C(F)(F)F)cc2)c2ccnn2C1` (centres unmarked) [Cpd. No. 062, N-(4-(4-(trifluoromethyl)phenyl)-4,5,6,7-tetrahydropyrazolo[1,5-a]pyrimidin-6-yl)propionamide] is above 20000 nM; for `CS(=O)(=O)NCC1CN(Cc2ccc(C(F)(F)F)cc2)c2ccnn2C1` (centres unmarked) [Cpd. No. 051, N-((4-(4-(trifluoro-methyl)benzyl)-4,5,6,7-tetrahydropyrazolo[1,5-a]pyrimidin-6-yl)-methyl)methanesulfonamide] it is above 20000 nM.
`C#CCN1CC(CNC(=O)C=C)Cn2nccc21` (centres unmarked) [Cpd. No. 057, N-((4-(prop-2-yn-1-yl)-4,5,6,7-tetrahydropyrazolo[1,5-a]pyrimidin-6-yl)-methyl)acrylamide] yielded an EC50 above 20000 nM.
Take `CCC(=O)NCC1Cc2nn(C)cc2N(c2ccc(OC(F)(F)F)cc2)C1` (centres unmarked) [Cpd. No. 075, N-((2-methyl-4-(4-(trifluoromethoxy)phenyl)-4,5,6,7-tetrahydro-2H-pyrazolo[4,3-b]pyridin-6-yl)methyl)propionamide]: the EC50 lay within 1000 to 20000 nM.
`C=CC(=O)NCC1CN(c2cccc(F)c2)c2ccnn2C1` (centres unmarked) [Cpd. No. 004, N-((4-(3-fluorophenyl)-4,5,6,7-tetrahydropyrazolo[1,5-a]pyrimidin-6-yl)methyl)acrylamide]: the 50% effective concentration (EC50) was below 1000 nM.
In turn, `CCC(=O)NCC1Cc2c(cnn2C)N(c2ccc(OC(F)(F)F)cc2)C1` (centres unmarked) [Cpd. No. 074, N-((1-methyl-4-(4-(trifluoromethoxy)phenyl)-4,5,6,7-tetrahydro-1H-pyrazolo[4,3-b]pyridin-6-yl)methyl)propionamide] returned an EC50 above 20000 nM.
On the same count and under the same terms, the figure for `C=CC(=O)NCC1CN(c2ccc(C(F)(F)F)cc2)c2cnc(C(F)(F)F)n2C1` (centres unmarked) [Cpd. No. 094, N-((6-(trifluoromethyl)-1-(4-(trifluoromethyl)phenyl)-1,2,3,4-tetrahydroimidazo[1,5-a]pyrimidin-3-yl)methyl)acrylamide] is below 1000 nM.
Same read-out and setting: the figure for `C=CC(=O)NCC1CN(c2ccc3scnc3c2)c2ccnn2C1` (single isomer, unassigned) [Cpd. No. 026-En1, (R)- or (S)-N-((4-(benzo[d]thiazol-5-yl)-4,5,6,7-tetrahydropyrazolo[1,5-a]pyrimidin-6-yl)methyl)acrylamide] is 1000 to 20000 nM.
Turning to `C=CC(=O)NCC1CN(c2ccn(C)c(=O)c2)c2ccnn2C1` (single isomer, unassigned) [Cpd. No. 024-En1, (R)- or (S)-N-((4-(1-methyl-2-oxo-1,2-dihydropyridin-4-yl)-4,5,6,7-tetrahydropyrazolo[1,5-a]pyrimidin-6-yl)methyl)acrylamide], the EC50 is above 20000 nM.
The molecule `CCC(=O)NCC1Cc2nn(C)cc2N(c2ccc(C(F)(F)F)cc2)C1` (centres unmarked) [Cpd. No. 073, N-((2-methyl-4-(4-(trifluoromethyl)phenyl)-4,5,6,7-tetrahydro-2H-pyrazolo[4,3-b]pyridin-6-yl)methyl)propionamide] came in with an EC50 below 1000 nM.

What is called EC50 is the concentration at which the effect is half-maximal. A higher EC50 goes with weaker potency.
